Experimental data as given in US20260078105A1, “Novel Aminocarboxymuconate Semialdehyde Decarboxylase Inhibitors” (OrsoBio, Inc., priority 2023, published 2026).

Target: T1, ACMSD (Mus musculus, UniProt Q8R519)
T1 construct: endogenous in cells; host or cells: primary mouse hepatocytes (frozen, commercial)
Experiment: Quinolinic acid (QA) levels in primary mouse hepatocytes by LC-MS/MS, as indicator of ACMSD inhibition
Format: cell-based
Conditions: 3 μM compound, six hours, 500 μM tryptophan, ratio of QA formed with compound versus wells with no compound (DMSO)
Method: Frozen primary mouse hepatocytes were thawed as per manufacturer's instructions and seeded at a density of 300,000 cells/well of a 6-well plate. After resting for a few hours, the cells were incubated with 3 μM of compound resuspended in DMSO in serum-free William's E media supplemented with 500 μM of tryptophan for six hours. After six hours, the cells were washed with phosphate buffer saline (PBS) and harvested in pre-cooled crashing solution (acetonitrile:methanol:water (40%:40%:20% w/w)) containing internal standard (telmisartan and/or verapamil). Ammonium bicarbonate (15%; 30 μL) was added to the lysates, incubated on dry ice for 10 min, centrifuged for 10 min at 14000 rpm and QA levels were quantified using optimized LC-MS/MS methods using an Atlantis, T3 3 μm, 150×4.6 mm column, and 0.1% formic acid in water and 0.2% formic acid in methanol as mobile phase A and B, respectively. The results are shown in Table 1 as a ratio of the amount of QA formed with compound versus the amount of QA in wells with no compound (DMSO). ACMSD is at the junction of the metabolic pathway of tryptophan. Increased QA levels or decreased PA levels would both be indicative of inhibition of ACMSD. When mouse hepatocytes are treated with the compounds of the invention, increased QA levels are observed and are therefore inhibitors of ACMSD.

T1 sequence (Q8R519 whole entry): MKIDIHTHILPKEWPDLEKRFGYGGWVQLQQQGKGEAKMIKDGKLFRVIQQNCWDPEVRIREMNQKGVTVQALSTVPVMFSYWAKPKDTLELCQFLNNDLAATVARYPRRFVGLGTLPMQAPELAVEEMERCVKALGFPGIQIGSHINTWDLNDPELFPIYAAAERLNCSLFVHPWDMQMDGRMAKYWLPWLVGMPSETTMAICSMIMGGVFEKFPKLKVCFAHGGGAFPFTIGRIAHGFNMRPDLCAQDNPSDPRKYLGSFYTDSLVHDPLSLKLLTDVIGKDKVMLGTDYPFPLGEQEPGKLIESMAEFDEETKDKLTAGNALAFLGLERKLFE

Quinolinic acid ratio (Range) | Structure (SMILES)
* (2 to 4) | CNC(=O)c1c(-c2ccc(Cl)cc2)c(C#N)c(SCc2nnn[nH]2)[nH]c1=O [Compound 127, 6-(((1H-tetrazol-5-yl)methyl)thio)-4-(4-chlorophenyl)-5-cyano-N-methyl-2-oxo-1,2-dihydropyridine-3-carboxamide]
* (2 to 4) | O=C(O)c1cccc(CSc2nc(-c3ccccc3)nc(=O)[nH]2)c1 [Compound 128, 3-(((6-oxo-4-phenyl-1,6-dihydro-1,3,5-triazin-2-yl)thio)methyl)benzoic acid]
* (2 to 4) | N#Cc1c(-c2ccccc2)nc(=O)[nH]c1SCC(=O)O [Compound 131, 2-((5-cyano-2-oxo-6-phenyl-2,3-dihydropyrimidin-4-yl)thio)acetic acid]
— (<2) | CC(C)Oc1nc(SCc2nnn[nH]2)[nH]c(=O)n1 [Compound 133, 6-(((1H-tetrazol-5-yl)methyl)thio)-4-isopropoxy-1,3,5-triazin-2(1H)-one]

The next lines start with the molecule.

Structure (SMILES) | Quinolinic acid ratio (Range)
N#Cc1c(SCc2nnn[nH]2)[nH]c(=O)c(Cl)c1-c1cccc(C(=O)Nc2ccccc2)c1 [Compound 123, 3-(6-(((1H-tetrazol-5-yl)methyl)thio)-3-chloro-5-cyano-2-oxo-1,2-dihydropyridin-4-yl)-N-phenylbenzamide] | ** (<4 to 6)
N#Cc1c(SCc2nnn[nH]2)[nH]c(=O)c(C(=O)Nc2ccccc2)c1-c1ccc(Cl)cc1 [Compound 124, 6-(((1H-tetrazol-5-yl)methyl)thio)-4-(4-chlorophenyl)-5-cyano-2-oxo-N-phenyl-1,2-dihydropyridine-3-carboxamide] | ** (<4 to 6)
N#Cc1c(SCc2nnn[nH]2)[nH]c(=O)c(C(=O)N2CCCC2)c1-c1ccc(Cl)cc1 [Compound 125, 2-(((1H-tetrazol-5-yl)methyl)thio)-4-(4-chlorophenyl)-6-oxo-5-(pyrrolidine-1-carbonyl)-1,6-dihydropyridine-3-carbonitrile] | ** (<4 to 6)
N#Cc1c(SCc2nnn[nH]2)[nH]c(=O)c(C(=O)N2CCCC2)c1-c1cccc(-c2ccccc2)c1 [Compound 126, 2-(((1H-tetrazol-5-yl)methyl)thio)-4-([1,1′-biphenyl]-3-yl)-6-oxo-5-(pyrrolidine-1-carbonyl)-1,6-dihydropyridine-3-carbonitrile] | ** (<4 to 6)
